In ChEMBL document CHEMBL4400533, “Histone deacetylase 3 inhibitors in learning and memory processes with special emphasis on benzamides” (Eur J Med Chem, 2019) one finds IC50 and pKa data, which are given here for 13 molecules.

For data set [1], the target named is T1, Protein deacetylase HDAC6 (Homo sapiens, UniProt Q9UBN7).
T1 sequence (Q9UBN7 whole entry): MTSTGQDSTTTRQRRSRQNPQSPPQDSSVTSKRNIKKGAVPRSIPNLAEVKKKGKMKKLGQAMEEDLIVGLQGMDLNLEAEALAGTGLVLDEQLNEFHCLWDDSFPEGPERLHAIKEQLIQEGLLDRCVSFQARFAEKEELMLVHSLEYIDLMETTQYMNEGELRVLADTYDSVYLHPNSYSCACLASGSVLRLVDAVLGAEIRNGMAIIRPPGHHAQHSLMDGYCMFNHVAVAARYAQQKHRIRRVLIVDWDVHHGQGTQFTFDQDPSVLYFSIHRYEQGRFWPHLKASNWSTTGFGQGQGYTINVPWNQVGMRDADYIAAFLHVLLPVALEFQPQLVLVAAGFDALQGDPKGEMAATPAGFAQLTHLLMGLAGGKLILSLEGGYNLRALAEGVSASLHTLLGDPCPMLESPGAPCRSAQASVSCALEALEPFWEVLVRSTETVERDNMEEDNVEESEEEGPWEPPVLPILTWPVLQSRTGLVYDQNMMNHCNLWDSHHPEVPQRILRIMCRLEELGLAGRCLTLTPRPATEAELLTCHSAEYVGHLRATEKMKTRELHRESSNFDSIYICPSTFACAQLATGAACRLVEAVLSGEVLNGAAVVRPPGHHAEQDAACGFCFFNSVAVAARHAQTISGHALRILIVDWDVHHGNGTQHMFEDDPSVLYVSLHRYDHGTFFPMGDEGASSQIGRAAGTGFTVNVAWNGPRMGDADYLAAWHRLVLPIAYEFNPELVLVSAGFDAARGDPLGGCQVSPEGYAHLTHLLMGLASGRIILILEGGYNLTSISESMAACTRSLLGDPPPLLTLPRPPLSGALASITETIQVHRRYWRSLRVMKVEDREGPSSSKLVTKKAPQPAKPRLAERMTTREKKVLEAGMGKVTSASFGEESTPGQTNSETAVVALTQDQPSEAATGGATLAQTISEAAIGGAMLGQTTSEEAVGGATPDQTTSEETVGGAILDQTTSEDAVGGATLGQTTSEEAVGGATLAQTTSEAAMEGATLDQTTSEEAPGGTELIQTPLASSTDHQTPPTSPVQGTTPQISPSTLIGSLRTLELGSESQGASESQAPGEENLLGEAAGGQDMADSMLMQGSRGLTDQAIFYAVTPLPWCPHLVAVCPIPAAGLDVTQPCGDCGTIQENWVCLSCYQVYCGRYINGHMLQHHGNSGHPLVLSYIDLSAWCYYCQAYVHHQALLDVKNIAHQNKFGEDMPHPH
Briefly: Inhibition of HDAC6 (unknown origin) using (FAM)-labeled acetylated peptide as substrate measured after 17 hrs by fluorescence assay.

In data set [2] the target is T2, Polyamine deacetylase HDAC10 (Homo sapiens, UniProt Q969S8).
T2 sequence (Q969S8 whole entry): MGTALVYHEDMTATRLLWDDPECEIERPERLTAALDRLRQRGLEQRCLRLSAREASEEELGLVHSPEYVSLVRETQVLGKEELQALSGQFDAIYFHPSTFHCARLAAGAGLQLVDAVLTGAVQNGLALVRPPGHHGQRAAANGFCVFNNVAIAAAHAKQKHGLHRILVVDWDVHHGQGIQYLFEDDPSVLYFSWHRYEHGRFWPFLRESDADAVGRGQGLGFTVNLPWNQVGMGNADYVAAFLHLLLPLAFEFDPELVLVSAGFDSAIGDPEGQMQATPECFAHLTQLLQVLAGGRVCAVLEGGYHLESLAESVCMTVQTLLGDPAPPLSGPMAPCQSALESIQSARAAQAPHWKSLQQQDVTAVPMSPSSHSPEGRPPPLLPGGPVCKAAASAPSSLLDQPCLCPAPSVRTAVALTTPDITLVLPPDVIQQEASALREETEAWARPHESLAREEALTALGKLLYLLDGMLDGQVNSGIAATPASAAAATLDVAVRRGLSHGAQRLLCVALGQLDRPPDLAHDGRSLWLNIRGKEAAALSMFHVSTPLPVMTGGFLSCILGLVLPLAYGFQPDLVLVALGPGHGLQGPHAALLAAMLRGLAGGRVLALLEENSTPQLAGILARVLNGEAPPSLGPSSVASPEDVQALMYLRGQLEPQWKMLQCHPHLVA
Briefly: Inhibition of HDAC10 (unknown origin) using (FAM)-labeled acetylated peptide as substrate measured after 17 hrs by fluorescence assay.

Data set [3] has as its target T3, Histone deacetylase 1 (Homo sapiens, UniProt Q13547). Nature of the data set: Inhibition of HDAC1 (unknown origin) using (FAM)-labeled acetylated peptide as substrate measured after 17 hrs by fluorescence assay.
The next data set addresses Histone deacetylase 3 (Homo sapiens, UniProt O15379). Nature of the data set: Inhibition of HDAC3 (unknown origin) using (FAM)-labeled acetylated peptide as substrate measured after 17 hrs by fluorescence assay.
Data set [4] concerns the target T4, Histone deacetylase 2 (Homo sapiens, UniProt Q92769). Nature of the data set: Inhibition of HDAC2 (unknown origin) using (FAM)-labeled acetylated peptide as substrate measured after 17 hrs by fluorescence assay.
Data set [5] concerns the target T5, Histone deacetylase 8 (Homo sapiens, UniProt Q9BY41).
T5 sequence (Q9BY41 whole entry): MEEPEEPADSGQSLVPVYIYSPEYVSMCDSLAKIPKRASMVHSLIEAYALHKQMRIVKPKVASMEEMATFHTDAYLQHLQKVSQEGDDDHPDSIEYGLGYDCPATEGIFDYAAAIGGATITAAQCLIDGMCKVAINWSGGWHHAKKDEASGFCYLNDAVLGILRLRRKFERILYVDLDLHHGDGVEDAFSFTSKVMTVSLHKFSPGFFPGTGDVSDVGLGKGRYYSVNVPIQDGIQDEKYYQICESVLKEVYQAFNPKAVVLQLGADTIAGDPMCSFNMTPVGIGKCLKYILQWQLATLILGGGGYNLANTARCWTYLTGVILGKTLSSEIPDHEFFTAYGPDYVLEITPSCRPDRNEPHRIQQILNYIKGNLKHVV
Briefly: Inhibition of HDAC8 (unknown origin) using (FAM)-labeled acetylated peptide as substrate measured after 17 hrs by fluorescence assay.

Another data set deals with Histone deacetylase 5 (Homo sapiens, UniProt Q9UQL6). Nature of the data set: Inhibition of HDAC5 (unknown origin).
For data set [6], the target named is T6, Histone deacetylase 4 (Homo sapiens, UniProt P56524). Nature of the data set: Inhibition of HDAC4 (unknown origin).
For data set [7], the target named is T7, Histone deacetylase 7 (Homo sapiens, UniProt Q8WUI4).
T7 sequence (Q8WUI4 whole entry): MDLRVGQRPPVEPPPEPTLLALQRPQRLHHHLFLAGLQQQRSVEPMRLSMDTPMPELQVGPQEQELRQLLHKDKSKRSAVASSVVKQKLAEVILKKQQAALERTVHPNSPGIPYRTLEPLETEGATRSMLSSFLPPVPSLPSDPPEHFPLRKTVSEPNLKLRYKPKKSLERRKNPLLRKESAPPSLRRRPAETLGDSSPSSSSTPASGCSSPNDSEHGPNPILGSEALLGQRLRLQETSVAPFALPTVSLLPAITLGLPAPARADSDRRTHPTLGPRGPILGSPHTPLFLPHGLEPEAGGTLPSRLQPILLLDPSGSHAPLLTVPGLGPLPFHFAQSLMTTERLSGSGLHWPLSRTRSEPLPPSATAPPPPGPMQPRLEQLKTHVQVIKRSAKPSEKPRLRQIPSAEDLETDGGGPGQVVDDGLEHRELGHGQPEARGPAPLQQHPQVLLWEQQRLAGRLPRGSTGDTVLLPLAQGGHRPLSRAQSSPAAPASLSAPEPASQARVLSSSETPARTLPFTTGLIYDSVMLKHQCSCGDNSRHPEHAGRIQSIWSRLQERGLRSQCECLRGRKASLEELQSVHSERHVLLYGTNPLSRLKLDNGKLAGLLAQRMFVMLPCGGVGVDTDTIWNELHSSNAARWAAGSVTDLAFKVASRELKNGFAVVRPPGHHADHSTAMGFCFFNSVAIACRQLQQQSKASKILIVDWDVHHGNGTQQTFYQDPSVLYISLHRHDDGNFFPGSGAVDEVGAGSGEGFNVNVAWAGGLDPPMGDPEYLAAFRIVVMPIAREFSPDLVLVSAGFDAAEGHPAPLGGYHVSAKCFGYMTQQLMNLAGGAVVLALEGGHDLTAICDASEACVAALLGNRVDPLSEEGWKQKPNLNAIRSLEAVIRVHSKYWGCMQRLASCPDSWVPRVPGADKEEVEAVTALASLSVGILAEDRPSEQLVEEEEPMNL
Nature of the data set: Inhibition of HDAC7 (unknown origin).

The target in data set [8] is Histone deacetylase 3/NCoR1 (Homo sapiens, UniProt O15379). Briefly: Inhibition of human recombinant HDAC3/GST-tagged NCOR1 DAD (397 to 503 residues) expressed in baculovirus expression system by fluorescence assay.
Data set [9] has as its target T1, Protein deacetylase HDAC6. Nature of the data set: Inhibition of recombinant human full length N-terminal GST-tagged HDAC6 expressed in Sf9 insect cells using (S)-6-acetamido-2-(2-((S)-2-acetamido-4-methylpentanamido)acetamido)-N-(4-methyl-2-oxo-2H-chromen-7-yl)hexanamide as substrate by fluorescence assay.
The nature of data set [10]: Dissociation constant, pKa of the compound. The data set is classed as physicochemical.
Data set [11] deals with T3, Histone deacetylase 1. Briefly: Inhibition of recombinant human HDAC1 using fluorescently-labeled acetylated histone peptide as substrate by microfluidic mobility shift assay.
In data set [12] the target is T7, Histone deacetylase 7. Nature of the data set: Inhibition of recombinant human HDAC7 using fluorescently-labeled acetylated histone peptide as substrate by microfluidic mobility shift assay.
Data set [13] concerns the target T4, Histone deacetylase 2. Briefly: Inhibition of recombinant human HDAC2 using fluorescently-labeled acetylated histone peptide as substrate by microfluidic mobility shift assay.
In data set [14] the target is T6, Histone deacetylase 4. Briefly: Inhibition of recombinant human HDAC4 using fluorescently-labeled acetylated histone peptide as substrate by microfluidic mobility shift assay.
Data set [15] deals with T5, Histone deacetylase 8. Briefly: Inhibition of recombinant human HDAC8 using fluorescently-labeled acetylated histone peptide as substrate by microfluidic mobility shift assay.
The target in data set [16] is T1, Protein deacetylase HDAC6. Nature of the data set: Inhibition of recombinant human HDAC6 using fluorescently-labeled acetylated histone peptide as substrate by microfluidic mobility shift assay.

Molecules are shown by their SMILES. Where only a bound is given, the exact number is not on record here.

Chain of Histone deacetylase 3 (O15379 whole entry): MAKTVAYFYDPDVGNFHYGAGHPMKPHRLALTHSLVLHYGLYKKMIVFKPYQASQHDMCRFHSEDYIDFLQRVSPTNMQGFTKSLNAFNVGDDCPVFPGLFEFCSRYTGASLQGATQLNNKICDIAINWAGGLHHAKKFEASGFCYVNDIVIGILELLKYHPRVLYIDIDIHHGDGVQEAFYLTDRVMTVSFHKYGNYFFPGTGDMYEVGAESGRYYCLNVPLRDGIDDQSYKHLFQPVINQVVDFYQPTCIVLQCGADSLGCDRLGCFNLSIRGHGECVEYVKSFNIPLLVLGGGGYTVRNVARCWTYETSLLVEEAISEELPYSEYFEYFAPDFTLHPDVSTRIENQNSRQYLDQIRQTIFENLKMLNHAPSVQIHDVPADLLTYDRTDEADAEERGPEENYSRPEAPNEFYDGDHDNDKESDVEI
T4 sequence (Q92769 whole entry): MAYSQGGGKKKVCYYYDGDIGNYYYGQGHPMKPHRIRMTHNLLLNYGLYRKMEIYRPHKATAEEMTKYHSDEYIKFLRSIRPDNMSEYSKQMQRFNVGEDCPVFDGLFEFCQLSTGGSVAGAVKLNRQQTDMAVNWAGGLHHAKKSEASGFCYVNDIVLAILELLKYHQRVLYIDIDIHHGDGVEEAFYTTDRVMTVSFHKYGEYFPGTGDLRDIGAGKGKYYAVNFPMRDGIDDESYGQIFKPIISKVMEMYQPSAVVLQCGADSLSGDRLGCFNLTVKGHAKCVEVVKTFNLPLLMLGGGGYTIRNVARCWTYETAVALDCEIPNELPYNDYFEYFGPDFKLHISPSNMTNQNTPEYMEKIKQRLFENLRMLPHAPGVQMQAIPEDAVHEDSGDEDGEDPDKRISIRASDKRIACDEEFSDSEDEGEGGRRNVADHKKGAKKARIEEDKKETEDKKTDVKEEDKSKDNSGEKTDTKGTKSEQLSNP
T3 sequence (Q13547 whole entry): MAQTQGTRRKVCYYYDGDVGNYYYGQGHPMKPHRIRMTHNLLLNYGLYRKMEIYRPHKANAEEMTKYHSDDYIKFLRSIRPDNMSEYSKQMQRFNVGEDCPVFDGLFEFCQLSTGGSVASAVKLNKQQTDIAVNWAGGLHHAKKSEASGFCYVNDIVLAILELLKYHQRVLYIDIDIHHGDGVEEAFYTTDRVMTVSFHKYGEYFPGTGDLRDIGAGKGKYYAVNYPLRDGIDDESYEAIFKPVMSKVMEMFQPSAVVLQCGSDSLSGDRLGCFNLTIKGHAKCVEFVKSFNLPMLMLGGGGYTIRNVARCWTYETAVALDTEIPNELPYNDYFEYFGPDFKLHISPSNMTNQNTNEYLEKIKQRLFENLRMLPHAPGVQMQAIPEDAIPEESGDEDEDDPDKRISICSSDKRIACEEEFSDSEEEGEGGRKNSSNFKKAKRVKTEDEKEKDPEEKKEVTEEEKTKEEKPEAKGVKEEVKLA
T6 sequence (P56524 whole entry): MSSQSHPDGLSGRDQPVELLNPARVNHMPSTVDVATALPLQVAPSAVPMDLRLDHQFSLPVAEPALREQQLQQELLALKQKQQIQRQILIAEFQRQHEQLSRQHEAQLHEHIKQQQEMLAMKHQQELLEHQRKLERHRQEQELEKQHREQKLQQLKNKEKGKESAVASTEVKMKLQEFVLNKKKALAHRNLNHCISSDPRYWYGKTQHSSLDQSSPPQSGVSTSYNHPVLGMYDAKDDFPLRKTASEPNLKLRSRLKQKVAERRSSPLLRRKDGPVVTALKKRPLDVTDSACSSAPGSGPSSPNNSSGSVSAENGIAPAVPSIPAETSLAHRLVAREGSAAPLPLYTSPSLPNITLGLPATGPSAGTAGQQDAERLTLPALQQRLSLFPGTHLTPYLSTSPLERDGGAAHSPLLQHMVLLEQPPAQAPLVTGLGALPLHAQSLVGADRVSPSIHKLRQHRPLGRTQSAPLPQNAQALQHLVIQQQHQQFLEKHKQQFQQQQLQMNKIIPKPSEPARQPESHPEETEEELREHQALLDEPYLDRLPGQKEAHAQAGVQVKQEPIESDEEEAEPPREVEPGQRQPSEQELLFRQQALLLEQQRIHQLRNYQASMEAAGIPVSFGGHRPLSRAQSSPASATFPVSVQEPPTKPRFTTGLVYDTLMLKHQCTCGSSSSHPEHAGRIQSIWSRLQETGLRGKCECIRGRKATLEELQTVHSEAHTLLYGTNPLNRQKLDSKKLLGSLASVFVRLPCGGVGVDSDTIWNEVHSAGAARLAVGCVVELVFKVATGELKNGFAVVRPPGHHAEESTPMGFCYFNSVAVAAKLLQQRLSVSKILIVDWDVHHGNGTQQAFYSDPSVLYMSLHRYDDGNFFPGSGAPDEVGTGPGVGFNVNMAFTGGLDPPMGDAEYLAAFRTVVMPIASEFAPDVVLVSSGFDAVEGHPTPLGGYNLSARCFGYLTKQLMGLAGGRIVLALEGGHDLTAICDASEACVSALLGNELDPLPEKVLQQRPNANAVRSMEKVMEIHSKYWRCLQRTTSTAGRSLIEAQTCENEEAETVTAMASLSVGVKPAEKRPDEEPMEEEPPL
Chain of Histone deacetylase 5 (Q9UQL6 whole entry): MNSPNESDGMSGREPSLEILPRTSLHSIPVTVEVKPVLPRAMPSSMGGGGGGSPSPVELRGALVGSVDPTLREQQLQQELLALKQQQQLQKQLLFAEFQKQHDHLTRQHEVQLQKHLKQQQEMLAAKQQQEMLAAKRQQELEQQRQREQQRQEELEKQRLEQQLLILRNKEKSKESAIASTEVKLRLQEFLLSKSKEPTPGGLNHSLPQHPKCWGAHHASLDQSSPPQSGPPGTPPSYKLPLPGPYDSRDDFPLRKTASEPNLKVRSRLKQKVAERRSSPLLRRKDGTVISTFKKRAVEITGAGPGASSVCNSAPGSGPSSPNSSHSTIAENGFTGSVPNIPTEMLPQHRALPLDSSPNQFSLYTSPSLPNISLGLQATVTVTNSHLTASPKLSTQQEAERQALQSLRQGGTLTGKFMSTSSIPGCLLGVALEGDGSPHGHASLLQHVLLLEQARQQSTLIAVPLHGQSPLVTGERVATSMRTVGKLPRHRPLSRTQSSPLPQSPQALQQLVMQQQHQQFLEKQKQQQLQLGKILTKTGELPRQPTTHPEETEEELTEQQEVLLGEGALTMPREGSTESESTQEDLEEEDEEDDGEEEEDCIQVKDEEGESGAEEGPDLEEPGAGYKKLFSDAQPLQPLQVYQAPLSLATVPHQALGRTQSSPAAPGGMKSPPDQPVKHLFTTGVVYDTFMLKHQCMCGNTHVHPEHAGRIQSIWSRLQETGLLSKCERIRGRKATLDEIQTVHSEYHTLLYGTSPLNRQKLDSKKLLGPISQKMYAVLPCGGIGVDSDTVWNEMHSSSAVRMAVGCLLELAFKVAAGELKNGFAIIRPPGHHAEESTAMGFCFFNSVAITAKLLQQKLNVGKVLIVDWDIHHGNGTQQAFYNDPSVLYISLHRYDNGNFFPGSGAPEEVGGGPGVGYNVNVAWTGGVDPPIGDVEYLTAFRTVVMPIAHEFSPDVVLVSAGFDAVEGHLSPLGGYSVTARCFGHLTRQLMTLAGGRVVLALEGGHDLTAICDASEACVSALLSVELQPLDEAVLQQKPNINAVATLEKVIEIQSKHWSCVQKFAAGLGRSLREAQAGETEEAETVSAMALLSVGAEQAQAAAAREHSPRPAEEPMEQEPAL

One may read the IC50 as the midpoint of a concentration-inhibition curve. Take `Nc1cccc(-c2csc(NC(=O)CCCCCC(=O)NO)n2)c1`: the half-inhibitory concentration (IC50) in data set [1] was 3.3 nM; in data set [2], 3.7 nM; against Histone deacetylase 1 [3], 3.8 nM; on Histone deacetylase 3, 2.1 nM; at Histone deacetylase 2 [4], 26.5 nM; at Histone deacetylase 8 [5], 1950 nM.
Take `Nc1ccccc1NC(=O)CCCCCC(=O)Nc1ccccc1`: the IC50 entry at Histone deacetylase 5, against Histone deacetylase 4 [6] and on Histone deacetylase 7 [7] was “Not Active” in each case.
Regarding `Nc1ccccc1NC(=O)c1ccc(-c2cn(CCc3ccsc3)nn2)cc1`, the IC50 in [8] was found to be 240 nM.
For `Nc1ccccc1NC(=O)c1cnccn1`, the IC50 in data set [9] is > 20 µM.
As a reminder, the pKa is the pH at which an ionisable group is half protonated. A lower pKa goes with a stronger acid or weaker base. `CC(=O)Nc1ccc(C(=O)Nc2ccc(F)cc2N)cc1`: the pKa in data set [10] worked out at 2.33.
In the case of `C=C1CN(Cc2ccc(C(=O)Nc3ccccc3N)cc2)C(=O)c2ccccc21`, the half-maximal inhibitory concentration (IC50) was 4.8 µM on Histone deacetylase 1 [11]; 4.1 µM on Histone deacetylase 7 [12]; 30 nM on Histone deacetylase 2 [13]; 5 µM at Histone deacetylase 4 [14]; > 10 µM at Histone deacetylase 8 [15]; > 10 µM in data set [16].
Regarding `CCOC(=O)Nc1cccc(-c2csc(NC(=O)CCCCCC(=O)NO)n2)c1`, the IC50 in data set [1] came out at 0.79 nM; in data set [2], 2.1 nM; at Histone deacetylase 1 [3] it was 2.5 nM; on Histone deacetylase 3, 1.3 nM; on Histone deacetylase 2 [4], 24.5 nM; on Histone deacetylase 8 [5], 787 nM.
`CC(C)(C)OC(=O)Nc1cccc(-c2csc(NC(=O)CCCCCC(=O)Nc3ccccc3N)n2)c1`: the IC50 in data set [1] is 1500 nM; in [2], 5300 nM; at Histone deacetylase 1 [3], 4200 nM; at Histone deacetylase 3, 160 nM; at Histone deacetylase 2 [4], 1100 nM; at Histone deacetylase 8 [5], > 30000 nM.
`CC(=O)Nc1cccc(-c2csc(NC(=O)CCCCCC(=O)Nc3ccccc3N)n2)c1`: the IC50 in [1] is 11200 nM; in data set [2], 3000 nM; at Histone deacetylase 1 [3], 3200 nM; at Histone deacetylase 3, 30 nM; on Histone deacetylase 2 [4], 200 nM; against Histone deacetylase 8 [5], > 30000 nM.
With `CC(C)(C)OC(=O)Nc1cccc(-c2csc(NC(=O)CCCCCC(=O)NO)n2)c1`, the IC50 in data set [1] is < 0.17 nM; in data set [2], 5.7 nM; against Histone deacetylase 1 [3], 4.2 nM; against Histone deacetylase 3 it was 1.7 nM; on Histone deacetylase 2 [4] it was 21 nM; at Histone deacetylase 8 [5], 2580 nM.
`CCOC(=O)Nc1cccc(-c2csc(NC(=O)CCCCCC(=O)Nc3ccccc3N)n2)c1`: the IC50 is > 30000 nM in data set [1]; > 30000 nM in data set [2]; 24800 nM at Histone deacetylase 1 [3]; 60 nM on Histone deacetylase 3; 880 nM on Histone deacetylase 2 [4]; > 30000 nM at Histone deacetylase 8 [5].
Regarding `Nc1cccc(-c2csc(NC(=O)CCCCCC(=O)Nc3ccccc3N)n2)c1`, the IC50 in [1] is > 30000 nM; in [2], 2910 nM; against Histone deacetylase 1 [3], 2490 nM; on Histone deacetylase 3, 60.3 nM; on Histone deacetylase 2 [4], 147 nM; against Histone deacetylase 8 [5], > 30000 nM.
For the molecule `CC(=O)Nc1ccc(C(=O)Nc2ccccc2N)cc1` [TACEDINALINE], the pKa in data set [10] was found to be 3.33.
